{
  "source": "patent US11099176B2",
  "about": "(priority 2015, dated 2021)",
  "key": {"[1]": {"target": "Marinobacter sp. msLacBP6 variant V192C, SEQ ID NO: 40, Acrylodan conjugate", "assay": "Fluorescence titration of conjugate", "assay_type": "binding", "details": "read-out: trueKd (lactate); monochromatic, 500 nm"}, "[2]": {"system": "Marinobacter sp. msLacBP6 187C mutants (variants of Table 7)", "assay": "Affinity summary of msLacBP6 187C affinity-tuning mutants", "assay_type": "binding", "description": "In the PCS we mutated F68 (F98 in ttLacBP1) and D220 (D250 in ttLacBP1). […] It could therefore be considered part of a secondary complementary surface layer (SCS). In the interface we mutated L70 (L100 in ttLacBP1), which is located at the periphery of the lactate-binding site, and forms a contact from the N- to the C-terminal domain across the inter-domain interface.\nBoth PCS and SCS mutations perturbed the spectral shapes of the lactate-mediated responses. […] These affinity-tuned sensors therefore provide a suitable set for clinical chemistry applications."}, "[3]": {"target": "Marinobacter sp. msLacBP6 variant 187C, F68L, SEQ ID NO: 49, Acrylodan conjugate", "assay": "Fluorescence titration of conjugate (affinity tuning)", "assay_type": "binding", "details": "λ1 459, λ2 516 nm"}, "[4]": {"target": "Marinobacter sp. msLacBP6 variant W11C, Acrylodan conjugate", "assay": "Fluorescence titration of conjugate", "assay_type": "binding", "details": "λ1 473, λ2 520 nm"}, "[5]": {"target": "T1, Flexistipes sinusarabici fsLacBP13 variant W188C, SEQ ID NO: 47, Badan conjugate (Flexistipes sinusarabici, UniProt F8E724, W211C)", "T1 construct": "Badan on Cys188", "T1 sequence (F8E724 entry or part of it W211C)": "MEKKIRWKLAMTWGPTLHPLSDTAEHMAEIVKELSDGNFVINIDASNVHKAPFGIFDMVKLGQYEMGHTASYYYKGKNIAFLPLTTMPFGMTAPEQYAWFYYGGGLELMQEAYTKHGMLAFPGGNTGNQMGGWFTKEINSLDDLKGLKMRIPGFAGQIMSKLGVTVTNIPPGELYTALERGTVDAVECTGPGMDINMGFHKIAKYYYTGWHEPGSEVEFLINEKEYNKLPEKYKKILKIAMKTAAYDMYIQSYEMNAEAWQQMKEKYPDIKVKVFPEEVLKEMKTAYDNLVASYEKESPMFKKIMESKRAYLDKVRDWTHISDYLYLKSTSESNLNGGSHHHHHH", "assay": "Fluorescence titration of conjugate", "assay_type": "binding"}, "[6]": {"target": "Marinobacter sp. msLacBP6 variant Y187C (187C), SEQ ID NO: 38, Badan conjugate", "assay": "Fluorescence titration of conjugate", "assay_type": "binding"}, "[7]": {"target": "Marinobacter sp. msLacBP6 variant 187C, P150S, SEQ ID NO: 55, Acrylodan conjugate", "assay": "Fluorescence titration of conjugate (affinity tuning)", "assay_type": "binding", "details": "read-out: trueKd (lactate); monochromatic, 463 nm"}, "[8]": {"target": "T2, Polymorphum gilvum pgLacBP10, YP_004304976.1, SEQ ID NO: 10 (expressed form SEQ ID NO: 24) (Polymorphum gilvum, UniProt F2IY60)", "T2 sequence (F2IY60 with tags, fused parts or gaps)": "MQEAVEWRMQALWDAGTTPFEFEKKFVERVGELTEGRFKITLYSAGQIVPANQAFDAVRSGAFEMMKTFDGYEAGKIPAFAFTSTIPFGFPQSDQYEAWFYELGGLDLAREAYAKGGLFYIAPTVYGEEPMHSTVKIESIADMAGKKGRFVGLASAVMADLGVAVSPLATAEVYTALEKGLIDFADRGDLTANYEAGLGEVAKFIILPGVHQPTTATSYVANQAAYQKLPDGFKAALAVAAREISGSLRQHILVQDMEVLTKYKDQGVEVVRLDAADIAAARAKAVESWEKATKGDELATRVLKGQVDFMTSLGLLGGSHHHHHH", "assay": "Lactate binding by thermal stability shift", "parameters": "key to appKd (lactate) / trueKd (lactate): nb: no binding", "description": "These experiments comprise four successive steps: • 1. Synthetic gene construction. The amino acid sequence of the homology leads are back translated into DNA sequences. These are optimized for directing heterologous cytoplasmic expression of the protein homologues in E. coli, using either the OrfOpt or OrfMorph programs. These programs predict mRNA sequences that direct high-level protein expression in E. coli. The predicted gene sequences are assembled de novo from synthetic oligonucleotides. • 2. Heterologous protein expression of the homologues in E. coli. Plasmids carrying the synthetic expression constructs (see above) were transformed into KRX competent cells (Promega). Protein production was induced in bacterial cultures of these cultures. • 3. Purification of successfully expressed protein using immobilized metal affinity chromatography. • 4.\nThe thermal stability of purified LacBP candidate proteins was determined by measuring the temperature-dependence of the fluorescence signal of an extrinsically added dye, SYPRO, using a Roche LightCycler (Layton and Hellinga, 2010, Biochemistry, 49, 10831-41). The total fluorescence intensity, S, is given by S=βFfF+βUfU 11 where fF and fU are the fractions of protein in the folded and unfolded states, respectively, and βF and βUthe fluorescence baselines of these two states. To get the fractions of the two states, we have\nTo obtain the temperature dependence of the binding reaction, the Kd values of all the individually determined isotherms were fit the Gibbs-Hemholtz equation (Layton and Hellinga, 2010, Biochemistry, 49, 10831-41): […]"}, "[9]": {"target": "Marinobacter sp. msLacBP6 variant G170C, SEQ ID NO: 36, Acrylodan conjugate", "assay": "Fluorescence titration of conjugate", "assay_type": "binding", "details": "λ1 518, λ2 490 nm"}, "[10]": {"target": "Marinobacter sp. msLacBP6 variant 187C, 70M, SEQ ID NO: 53, Acrylodan conjugate, immobilized on Ni-NTA beads", "assay": "Lactate titration of immobilized conjugate on magnetic Ni-NTA beads", "details": "read-out: trueKd (lactate), λ1 452, λ2 525 nm"}, "[11]": {"details": "Roche LightCycler, SYPRO Orange"}},
  "note": "Like-named read-outs stand apart in the source and are kept apart here.",
  "data": [
    {"smiles": "C[C@H](O)C(=O)O", "note": "[lactate]", "values": [
      {"measurement": "Kd", "setting": "[1]", "value": 20, "unit": "µM"},
      {"measurement": "effect of F68 mutations on lactate affinity", "setting": "[2]; F68 mutations in 187C background", "value": "did not greatly affect lactate affinity"},
      {"measurement": "Kd", "setting": "[2]; read-out: lactate affinities (range over variants), msLacBP6 Acrylodan and Badan conjugate variants", "value": "200 to 24000", "unit": "µM"},
      {"measurement": "Kd", "setting": "[3]; read-out: appKd (lactate)", "value": 600, "unit": "µM"},
      {"measurement": "Kd", "setting": "[3]; read-out: trueKd (lactate)", "value": 500, "unit": "µM"},
      {"measurement": "Kd", "setting": "[4]; read-out: appKd (lactate)", "value": 400, "unit": "µM"},
      {"measurement": "Kd", "setting": "[4]; read-out: trueKd (lactate)", "value": 400, "unit": "µM"},
      {"measurement": "Kd", "setting": "[5]", "value": "> 100000", "unit": "µM"},
      {"measurement": "Kd", "setting": "[5]; read-out: trueKd (lactate), λ1 483, λ2 466 nm", "value": "> 100000", "unit": "µM"},
      {"measurement": "Kd", "setting": "[6]; read-out: appKd (lactate), approximate, text statement for Acrylodan and Badan conjugates", "value": "~400", "unit": "µM"},
      {"measurement": "Kd", "setting": "[6]; read-out: appKd (lactate), λ1 460, λ2 537 nm", "value": 300, "unit": "µM"},
      {"measurement": "Kd", "setting": "[6]; read-out: appKd (lactate), λ1 539, λ2 459 nm (Table 6)", "value": 110, "unit": "µM"},
      {"measurement": "Kd", "setting": "[6]; read-out: trueKd (lactate), λ1 460, λ2 537 nm", "value": 200, "unit": "µM"},
      {"measurement": "Kd", "setting": "[6]; read-out: trueKd (lactate), λ1 539, λ2 459 nm (Table 6)", "value": 250, "unit": "µM"},
      {"measurement": "Kd", "setting": "[7]", "value": 24000, "unit": "µM"},
      {"measurement": "appKd (lactate)", "setting": "[8]; [11]", "value": "nb^f"},
      {"measurement": "trueKd (lactate)", "setting": "[8]; [11]", "value": "nb^f"},
      {"measurement": "Lactate Binding", "setting": "[8]; thermostability vs ligand concentration, fluorescence response of labeled conjugate", "value": "weak^f,g"},
      {"measurement": "Kd", "setting": "[9]; read-out: appKd (lactate)", "value": 10, "unit": "µM"},
      {"measurement": "Kd", "setting": "[9]; read-out: trueKd (lactate)", "value": 5, "unit": "µM"},
      {"measurement": "Kd", "setting": "[10]", "value": 1200, "unit": "µM"}
    ]}
  ]
}
